Entries after “also recorded” stand apart in the source; their conditions may differ. Counter-ions that a name gives are not always drawn.

Series [1] relates to M. hyopneumoniae. The experiment in a line: MIC against M. hyopneumoniae strains isolated from challenge material. Type of series: cell-based, Mycoplasma hyopneumoniae. The conditions noted are these: Mesomycoplasma hyopneumoniae.
For series [2], the system named is M. hyopneumoniae. The experiment in a line: Development of resistance (habituation study), MIC before and after passages. In kind it is cell-based, Mycoplasma hyopneumoniae. The conditions noted are these: for Resistance increase: up to P10/P11. On the procedure:
Mycoplasma hyopneumoniae reference strain NCTC 10110 (obtained from the National Collection of Type Cultures, London, UK) and a recent field isolate (MEVT G23), are grown aerobically at 36° C. in Mycoplasma glucose broth containing phenol red until an acid colour change occurs. After addition of sterile glycerol (5% v/v) the cultures are dispensed in 1 ml aliquots and frozen at -70° C. These cultures are used to initiate further broth cultures which are titrated to obtain the number of colour changing units (ccu) in microtitre plates after incubation (36° C.). Replication allows challenge of antibiotic dilutions with predetermined numbers of ccu in minimal inhibitory concentration (MIC) tests and in the primary passage in habituation studies.
A commercially available medium (Mycopiasma Experience Ltd.) containing glucose and phenol red (MEGB) is used at pH 7.6.
Stock test compound solutions are prepared at 1000 μg/ml in deionized water. After vortexing, the solutions are sterilized by filtration through 0.2μ pore size membrane filters (Sartorius Minisart, N). For use in the MIC tests the stock solutions are diluted in mycoplasma broth to double the final concentrations required. In habituation studies the stock solutions are dispensed in 1 ml aliquots and frozen at -20° C. These are thawed and used at 5 day-7 day intervals to prepare ranges of concentrations of drug (doubling series) in MEGB, in 1.9 ml aliquots, covering the MICs against both strains of M. hyopneumoniae. Oxytetracycline hydrochloride is prepared fresh on each occasion. The dilution ranges are gradually changed from passage to passage to allow for the development of resistance in the mycoplasmas.
MIC tests are carried out by the method of Tanner & Wu, Avian Diseases 36 (1992) 714-717 before carrying out the habituation study (below) and after the 10th passages 0.1 ml aliquots of the compound dilution are mixed with 0.1 ml aliquots of the challenge inocula, containing between 10^3 and 10^5 colour changing units (ccu) per ml, in microtitre wells. Each microtitre plate contains uninoculated medium, medium at pH 6.8 (end-point-control) and drug-free inoculated challenge controls. All plates are sealed and incubated aerobically at 36° C. MICs are recorded when the colour change in the challenge control wells match the pH 6.8 control (orange-yellow). The MIC is the lowest concentration to show no colour change.
Habituation study: In the primary passage experiment, 1.9 ml volumes of antibiotic solutions at concentrations covering the MIC of the M. hyopneumoniae strain under test, are inoculated with 0.1 ml of broth culture containing between 10^3 ccu/ml to 10^5 ccu/ml. A growth control consisting of drug-free broth inoculated with M. hyopneumoniae and an uninoculated medium control are included in each passage experiment. After 7 days incubation (36° C.) the two highest concentrations of drug-containing broth showing an acid colour change are pooled and used to inoculate a fresh series of drug dilutions in mycoplasma broth (0.1 ml culture into 1.9 ml drug-containing broth). This process is repeated every 5-7 days for up to 10 passages. When the mycoplasma strains become resistant to particular antibiotics, or at the 10th passage, each strain is grown once more in drug-containing broth and the MICs determined.

In series [3] the test system is weakly beta-hemolytic spirochetes. The conditions noted are these: WBHS.
A short description of series [4]: Acute toxicity in the rat. In kind it is in vivo. The method, then: The acute toxicity in the rat of the compound of formula I in hydrochloride salt form was determined with single doses of 1000 mg/kg and 2000 mg/kg orally administered to 5 male and 5 female rats per dose group. Deaths occurred within 1-8 days. The LD50 -value obtained is >1000 mg/kg p.o.

The term LD50 denotes the dose expected to kill half of the subjects tested. A high value points to a less toxic substance. With `C=C[C@]1(C)C[C@@H](OC(=O)CSC(C)(C)CNC(=O)[C@H](N)C(C)C)[C@]2(C)[C@H](C)CC[C@]3(CCC(=O)[C@H]32)[C@@H](C)[C@@H]1O` [valnemulin hydrochloride, 14-O-[1-[(R)-2-amino-3-methylbutyrylamino]-2-methylpropan-2-ylthioacetyl]mutilin], the MIC in the series with M. hyopneumoniae [1] (strain from material used in Trial 3) came to 7.8 ng/mL; in the series with M. hyopneumoniae [1] (strain in material used in Trials 1 & 2), 16 ng/mL; in the series with M. hyopneumoniae [2] (Mesomycoplasma hyopneumoniae, NCTC10110, read-out: Post-passage MIC up to P10/P11) it was 5 ng/mL. In the series with M. hyopneumoniae [2] (M. hyopneumoniae strains, in vitro passages), the “resistance development in words” value is “resistance development was minimal; also recorded: does not induce significant resistance to itself”. Also, the Resistance increase in the series with M. hyopneumoniae [2] (NCTC 10110) was 2 fold; in the series with M. hyopneumoniae [2] (field isolate), 2.5 fold. For the same compound, in the series on M. hyopneumoniae [2] (before exposure, both strains), the “activity greater than those of tylosin and oxytetracycline” value is recorded as 50-100 told. For the same compound, the “strains with MIC at the lowest value” in series [3] is 9 out of 10 strains. For the same compound, the tolerability entry in series [4] (in vivo) is reported as “well tolerated”. The same compound yielded an LD50 in series [4] (in vivo, po, single dose) of over 1000 mg/kg. Besides, the time of deaths in series [4] (oral 1000 and 2000 mg/kg) lay within 1 to 8 days.

The record behind these values is US6130250A, “Veterinary use of a pleuromutilin derivative” (priority 1996, dated 2000).
